Source: patent US10095829B2, “Computer implemented methods of treating lung cancer” (WORLDWIDE INNOVATIVE NETWORK, priority 2009, dated 2018)

Legend:
[1] = test system: bronchial adenocarcinoma T4 with bones and pleural metastases; details: Example 2 patient; for Clinical outcome: bronchial adenocarcinoma
[2] = test system: primary bronchial adenocarcinoma with bilateral pulmonary metastases and asymptomatic cerebral metastases; test: Clinical course under treatment, patient of Example 3; type: in vivo, human; details: Example 3 patient
Text: A patient was diagnosed in May 2007 for a primary bronchial adenocarcinoma with bilateral pulmonary metastases and asymptomatic cerebral metastases. A surgical treatment has been carried out in November 2008 and two therapeutic lines have been used, namely thirteen cycles of cisplatin-gemcitabin for the first line and Alimta for the second one.
However, based on this score table, avastin associated with a score of 384 has been selected.

[3] = test system: non-small cell lung carcinoma (NSCLC), cT4, N0, M1; test: Clinical course under treatment, patient of Example 1; type: in vivo, human; details: Example 1 patient, new subclavious metastasis
Text: The patient was a person. They suffered of a non-small cell lung carcinoma (NSCLC), cT4, N0, M1. […] For HKI 272, the patient has been included in a clinical trial.
Lapatinib, an anti-HER1 and -HER2 inhibitor, was justified, even if no mutation was detected in EGFR, because EGF overexpressed 15 folds in the patient and it was needed to continue HKI 272.

Compound | Clinical outcome [1] | Clinical outcome [2] | also measured
CCC1=C[C@@H]2CN(C1)Cc1c([nH]c3ccccc13)[C@@](C(=O)OC)(c1cc3c(cc1OC)N(C)[C@H]1[C@@](O)(C(=O)OC)[C@H](OC(C)=O)[C@]4(CC)C=CCN5CC[C@]31[C@@H]54)C2 [VINORELBINE] | the disease was stable, then progressed |  | Survival conferred ([1]; treatment since January 2010): three months survival
C#Cc1cccc(Nc2ncnc3cc(OCCOC)c(OCCOC)cc23)c1 [Tarceva] | inefficient and led to a rapid progression |  | 
Nc1nc2[nH]cc(CCc3ccc(C(=O)N[C@@H](CCC(=O)O)C(=O)O)cc3)c2c(=O)[nH]1 [PEMETREXED] |  | only associated with a disease progression | 
CCOc1cc2ncc(C#N)c(Nc3ccc(OCc4ccccn4)c(Cl)c3)c2cc1NC(=O)/C=C/CN(C)C [HKI 272] |  |  | Duration of treatment until disease progression was observed [3]: 37 months
BEVACIZUMAB: VEGFA gene is regarded as major target gene for bevacizumab |  | major response has been observed after two treatment cycles | 
